We go through 30 molecules from patent US8389557B2, “Triazole derivatives useful as Axl inhibitors” (Rigel Pharmaceuticals, Inc., priority 2005, dated 2013).

For orientation: IC50 means the midpoint of a concentration-inhibition curve. Lower therefore signals higher potency.

In this assay the target is T1, Axl (Homo sapiens, UniProt P30530).
T1 construct: endogenous in cells; host or cells: HeLa cells
T1 sequence (P30530 26-894): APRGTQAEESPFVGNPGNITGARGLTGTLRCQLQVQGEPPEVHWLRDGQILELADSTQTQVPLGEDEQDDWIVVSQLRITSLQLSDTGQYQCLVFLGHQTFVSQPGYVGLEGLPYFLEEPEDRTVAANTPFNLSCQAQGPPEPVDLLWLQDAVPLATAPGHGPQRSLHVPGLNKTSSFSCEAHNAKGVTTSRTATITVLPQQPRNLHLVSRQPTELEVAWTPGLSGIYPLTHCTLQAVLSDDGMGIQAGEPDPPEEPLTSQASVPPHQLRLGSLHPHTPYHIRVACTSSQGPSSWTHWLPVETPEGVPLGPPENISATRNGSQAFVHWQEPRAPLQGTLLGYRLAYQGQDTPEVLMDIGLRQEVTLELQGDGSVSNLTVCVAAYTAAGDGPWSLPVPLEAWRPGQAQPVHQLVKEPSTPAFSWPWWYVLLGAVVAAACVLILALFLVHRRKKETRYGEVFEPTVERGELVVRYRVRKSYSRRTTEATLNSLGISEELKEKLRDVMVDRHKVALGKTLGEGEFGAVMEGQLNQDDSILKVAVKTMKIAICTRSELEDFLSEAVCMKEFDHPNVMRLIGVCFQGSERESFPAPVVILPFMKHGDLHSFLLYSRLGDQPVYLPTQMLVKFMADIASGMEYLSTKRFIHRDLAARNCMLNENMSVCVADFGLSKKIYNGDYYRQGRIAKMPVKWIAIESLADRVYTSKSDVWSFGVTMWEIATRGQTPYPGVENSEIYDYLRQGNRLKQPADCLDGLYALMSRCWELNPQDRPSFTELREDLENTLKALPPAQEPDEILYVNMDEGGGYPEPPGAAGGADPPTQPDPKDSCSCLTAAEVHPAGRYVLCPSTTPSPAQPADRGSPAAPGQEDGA
The assay is described as follows: Phospho-Akt in-cell Western assay (inhibition of Axl activity). It is filed as cell-based. The method in brief: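 HeLa cells on poly-L-lysine, starved 24 h in 0.5% FCS DMEM with Axl/Fc 500 ng/mL, pre-treated with compound 1 h at 37° C. Axl stimulated 5 min by anti-Axl/anti-mouse antibody cross-linking. Fixed cells probed with anti-phospho-Akt and HRP secondary, chemiluminescence read.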

[1] abbreviates: Table 5, Hela cells, Axl antibody cross-linking stimulation, phospho-Akt chemiluminescence.
Setting [2] is: inhibition of Axl activity, Table 1.
The mark [3] stands for this setting: Table 2, Hela cells, Axl antibody cross-linking stimulation, phospho-Akt chemiluminescence.
The mark [4] stands for this setting: inhibition of Axl activity, phospho-Akt in-cell Western assay, Table 1.
Setting [5] is: Table 7, Hela cells, Axl antibody cross-linking stimulation, phospho-Akt chemiluminescence.
[6] abbreviates: Table 4, Hela cells, Axl antibody cross-linking stimulation, phospho-Akt chemiluminescence.

With `CC(C)(C)Oc1ccc(C(=O)n2nc(NC3C4C=CC(C4)C3C(N)=O)nc2N)cc1` (stereo not drawn) [compound 346, 5-amino-1-(4-(tert-butoxy)phenyl)carbonyl-3-[(5-(aminocarbonyl)bicyclo[2.2.1]hept-2-en-6-yl)amino]-1H-1,2,4-triazole], under setting [1], the IC50 was over 20 µM.
`Cc1ccc(Nc2nc(N)n(C(=O)c3ccc(C)cc3)n2)cc1` [compound 131, 5-amino-3-[4-(methyl)phenylamino]-1-(4-(methyl)phenyl)carbonyl-1H-1,2,4-triazole] displayed a concentration for half-maximal inhibition (IC50) under setting [2] of over 20 µM.
`Cc1cccc(C(=O)n2nc(Nc3ccc4[nH]ccc4c3)nc2N)c1` [compound 252, 5-amino-3-(1H-indol-5-yl)amino-1-(3-methylphenyl)carbonyl-1H-1,2,4-triazole]: the IC50 under setting [1] was in the range of 1 to 10 µM.
The molecule `Cc1ccc(C(=O)n2nc(N)nc2Nc2ccc(OC(C)C)cc2)cc1` [compound 56, 3-amino-5-[4-(iso-propoxy)phenylamino]-1-(4-(methyl)phenyl)carbonyl-1H-1,2,4-triazole] returned a half-inhibitory concentration (IC50) under setting [3] of over 20 µM.
`Cc1cccc(C(=O)n2nc(Nc3cccc(OCC(=O)NCCOC4CCCCO4)c3)nc2N)c1` (stereo not drawn) [compound 223]: the half-inhibitory concentration (IC50) under setting [2] fell in the range of 1 to 10 µM.
Molecule `Cc1cccc(C(=O)n2nc(Nc3ccc4ncccc4c3)nc2N)c1` [compound 251, 5-amino-1-(3-methylphenyl)carbonyl-3-(6-quinolinyl)amino-1H-1,2,4-triazole] gave an IC50 under setting [1] of 1 to 10 µM.
For the molecule `Nc1nc(Nc2ccc(N3CCOCC3)cc2)n(C(=O)c2cccc(Cl)c2)n1` [compound 75, 3-amino-1-(3-(chloro)phenyl)carbonyl-5-(4-(morpholin-4-yl)phenylamino)-1H-1,2,4-triazole], the IC50 under setting [3] is over 20 µM.
With `CC(C)(C)C(=O)Nc1ccc(C(=O)n2nc(Nc3ccc(OCCN4CCCC4)cc3)nc2N)cc1` [compound 290, 5-amino-1-(4-(tert-butylcarbonylamino)phenyl)carbonyl-3-[4-[2-(pyrrolidin-1-yl)ethoxy]phenylamino]-1H-1,2,4-triazole], the 50% inhibitory concentration (IC50) under setting [4] fell in the range of 10 to 20 µM.
`Nc1nc(Nc2ccc(OCCN3CCCCC3)cc2)nn1C(=O)c1ccc(C2CCCCC2)cc1` [compound 62, 5-amino-1-(4-(cyclohexyl)phenyl)carbonyl-3-[4-[2-(piperidin-1-yl)ethoxy]phenylamino]-1H-1,2,4-triazole] yielded an IC50 under setting [2] of 1 to 10 µM.
Under setting [5], `CC(=O)N(C)c1ccc(Nc2nc(N)n(C(=O)Nc3ccc(Cl)cc3)n2)cc1` [compound 174, 3-[4-(acetyl(methyl)amino)phenyl]amino-5-amino-N-(4-chlorophenyl)-1H-1,2,4-triazole-1-carboxamide] returned an IC50 of over 20 µM.
Molecule `COc1cc(NC(=O)n2nc(N)nc2Nc2ccc(OCCN3CCCCC3)cc2)cc(OC)c1` [compound 188, 3-amino-N-(3,5-dimethoxyphenyl)-5-[4-[2-(piperidin-1-yl)ethoxy]phenylamino]-1H-1,2,4-triazole-1-carboxamide] returned an IC50 (Table 8, Hela cells, Axl antibody cross-linking stimulation, phospho-Akt chemiluminescence) of 1 to 10 µM.
`Nc1nc(Nc2ccc3c(c2)OCCO3)n(C(=O)c2ccc(OCCC3OCCO3)cc2)n1` [compound 213] yielded an IC50 under setting [3] of over 20 µM.
`Nc1nc(Nc2ccc(OCCN3CCCC3)c(Cl)c2)nn1C(=O)c1cc(Cl)cc(Cl)c1` [compound 402, 5-amino-3-[3-chloro-4-[2-(pyrrolidin-1-yl)ethoxy]phenylamino]-1-(3,5-dichlorophenyl)carbonyl-1H-1,2,4-triazole] showed a half-inhibitory concentration (IC50) under setting [4] of over 20 µM.
In turn, `Nc1nc(Nc2ccc(OCCN3CC[C@H](F)C3)cc2)n(C(=O)c2ccc3cc[nH]c3c2)n1` [compound 389, 3-amino-1-(1H-indol-6-yl)carbonyl-5-[4-[2-((S)-3-fluoropyrrolidin-1-yl)ethoxy]phenylamino]-1H-1,2,4-triazole] showed an IC50 under setting [6] of under 1 µM.
As for `CC(C)(C)OC(=O)NC1CCOc2ccc(Nc3nc(N)n(C(=O)c4ccc5cc[nH]c5c4)n3)cc21` (stereo not drawn) [compound 276], the IC50 (Table 9, Hela cells, Axl antibody cross-linking stimulation, phospho-Akt chemiluminescence) fell in the range of 1 to 10 µM.
On to `Nc1nc(Nc2ccc3c(c2)OCCO3)nn1C(=O)c1cccc(OCc2ccccc2)c1` [compound 156, 5-amino-1-(3-(benzyloxy)phenyl)carbonyl-3-(1,4-benzodioxan-6-yl)amino-1H-1,2,4-triazole], for which, under setting [2], the IC50 lay in the range of 10 to 20 µM.
With `CC(C)(C)Oc1ccc(C(=O)n2nc(Nc3ccc(OCCN4CCCCCC4)cc3)nc2N)cc1` [compound 322, 5-amino-1-(4-(tert-butoxy)phenyl)carbonyl-3-[4-[2-(azepan-1-yl)ethoxy]phenylamino]-1H-1,2,4-triazole], the concentration for half-maximal inhibition (IC50) under setting [4] was under 1 µM.
In the case of `CC(C)c1ccc(NC(=O)n2nc(Nc3ccc(OCCN4CCCCC4)cc3)nc2N)cc1` [compound 41, 5-amino-N-(4-(iso-propyl)phenyl)-3-[4-[2-(piperidin-1-yl)ethoxy]phenylamino]-1H-1,2,4-triazole-1-carboxamide], under setting [5], the IC50 lay within 1 to 10 µM.
For `CC(C)Oc1ccc(Nc2nc(N)nn2C(=O)c2ccc3c(c2)NC(=O)C(C)(C)O3)cc1` [compound 66, 3-amino-1-(2,2-dimethyl-2H-benzo[b][1,4]oxazin-3(4H)-on-6-yl)carbonyl-5-(4-(iso-propoxy)phenyl)amino-1H-1,2,4-triazole], under setting [6], the IC50 fell in the range of 1 to 10 µM.
For `CC(C)(C)Oc1ccc(C(=O)n2nc(Nc3ccc(OCCN4CCOCC4)cc3)nc2N)cc1` [compound 267, 5-amino-1-(4-(tert-butoxy)phenyl)carbonyl-3-[4-[2-(morpholin-4-yl)ethoxy]phenylamino]-1H-1,2,4-triazole], the IC50 under setting [4] was under 1 µM.
For `Nc1nc(Nc2ccc(OCCN3CCCC3)cc2)nn1C(=O)c1ccc(-c2ccsc2)cc1` [compound 314, 5-amino-1-(4-(thien-3-yl)phenyl)carbonyl-3-[4-[2-(pyrrolidin-1-yl)ethoxy]phenylamino]-1H-1,2,4-triazole], the half-maximal inhibitory concentration (IC50) under setting [4] was under 1 µM.
In turn, `Nc1nc(Nc2ccc(OCCN3CCCC3)cc2)nn1C(=O)c1ccncc1` [compound 204, 5-amino-1-(pyridin-4-yl)carbonyl-3-[4-[2-(pyrrolidin-1-yl)ethoxy]phenylamino]-1H-1,2,4-triazole] came in with an IC50 (Table 3, Hela cells, Axl antibody cross-linking stimulation, phospho-Akt chemiluminescence) of over 20 µM.
For the molecule `CC(C)c1ccc(C(=O)n2nc(N)nc2Nc2ccc3c(c2)OCCO3)cc1` [compound 233, 3-amino-5-(1,4-benzodioxan-6-yl)amino-1-(4-iso-propylphenyl)carbonyl-1H-1,2,4-triazole], the IC50 under setting [3] is over 20 µM.
Under setting [2], `CC(=O)Nc1ccc(C(=O)n2nc(Nc3ccc4c(c3)OCCO4)nc2N)cc1` [compound 246, 1-[(4-Acetylamino)phenyl]carbonyl-5-amino-3-(1,4-benzodioxan-6-yl)-amino-1H-1,2,4-triazole] returned a half-maximal inhibitory concentration (IC50) of 1 to 10 µM.
For the molecule `CC(C)Oc1cccc(C(=O)n2nc(Nc3ccc(OCCN4CCCCC4)cc3)nc2N)c1` [compound 168, 5-amino-1-(3-(iso-propoxy)phenyl)carbonyl-3-[4-[2-(piperidin-1-yl)ethoxy]phenylamino]-1H-1,2,4-triazole], under setting [2], the IC50 is under 1 µM.
Take `CN(C)CCOc1ccc(Nc2nc(N)n(C(=O)c3ccc(N(C)C)cc3)n2)cc1` [compound 87, 5-amino-3-[4-[2-(dimethylamino)ethoxy]phenylamino]-1-(4-(dimethylamino)phenyl)carbonyl-1H-1,2,4-triazole]: the IC50 under setting [4] is under 1 µM.
Take `CN(C)c1ccc(C(=O)n2nc(N)nc2NC2CCN(S(C)(=O)=O)CC2)cc1` [compound 396, 3-amino-1-(4-(dimethylamino)phenyl)carbonyl-5-(1-methylsulfonylpiperidin-4-yl)amino-1H-1,2,4-triazole]: where the note is “Table 6, Hela cells, Axl antibody cross-linking stimulation, phospho-Akt chemiluminescence”, the 50% inhibitory concentration (IC50) is over 20 µM.
With `Cc1cccc(C(=O)n2nc(Nc3ccc4[nH]c(C)cc4c3)nc2N)c1` [compound 255, 5-amino-3-(1H-2-methyl-indol-5-yl)amino-1-(3-methylphenyl)carbonyl-1H-1,2,4-triazole], under setting [1], the IC50 was in the range of 1 to 10 µM.
For `Cc1ccc(NC(=O)n2nc(Nc3ccc(OCCN4CCCCC4)cc3)nc2N)cc1C` [compound 38, 5-amino-N-(3,4-(dimethyl)phenyl)-3-[4-[2-(piperidin-1-yl)ethoxy]phenylamino]-1H-1,2,4-triazole-1-carboxamide], the IC50 under setting [5] fell in the range of 1 to 10 µM.
In turn, `CC(C)Oc1ccc(C(=O)n2nc(Nc3ccc(N4CCCC4)cc3)nc2N)cc1` [compound 293, 5-amino-1-(4-(iso-propoxy)phenyl)carbonyl-3-[4-(pyrrolidin-1-yl)phenylamino]-1H-1,2,4-triazole] registered an IC50 under setting [4] of 1 to 10 µM.
